Data from patent US11932658B2 (BRISTOL-MYERS SQUIBB COMPANY, priority 2016, dated 2024).

Target: T1, PAR4 (Homo sapiens, UniProt Q96RI0)
T1 construct: expressed in transfected cells; host or cells: HEK293 PAR4 Clone 1.2A (BMS Arctic ID 383940)
T1 sequence (Q96RI0 18-385): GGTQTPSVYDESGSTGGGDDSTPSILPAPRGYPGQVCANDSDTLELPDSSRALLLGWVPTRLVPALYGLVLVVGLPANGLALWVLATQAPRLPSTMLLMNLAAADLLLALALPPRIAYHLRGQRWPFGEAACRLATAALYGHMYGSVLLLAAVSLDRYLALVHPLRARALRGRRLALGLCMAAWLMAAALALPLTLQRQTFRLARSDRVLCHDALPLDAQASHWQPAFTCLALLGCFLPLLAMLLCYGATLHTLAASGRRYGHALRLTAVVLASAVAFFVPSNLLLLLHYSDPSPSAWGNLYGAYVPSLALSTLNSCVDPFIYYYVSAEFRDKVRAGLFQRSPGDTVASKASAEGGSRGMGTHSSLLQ
Assay: PAR4 FLIPR assay (antagonism of agonist peptide-induced calcium mobilization)
Assay type: cell-based
Source text: The FLIPR assay is an exemplary in vitro assay for measuring the activity of the PAR4 antagonists of the present invention. In this assay, intracellular calcium mobilization is induced in PAR4 expressing cells by a PAR4 agonist and calcium mobilization is monitored.
HEK293 cells stably expressing PAR4 were generated by a standard method of transfection of human PAR4 (F2R23) cDNA expression vector and selected based on PAR4 protein expression or mRNA expression. […] These cells also express endogenous PAR1 and can elicit calcium signal upon stimulation with PAR1 agonist peptide. Therefore, the same cells were also used to determine selectivity against PAR1 and agonist activity for both receptors. Cells from HEK293 PAR4 Clone 1.2A (BMS Arctic ID 383940) were propagated and used for calcium mobilization studies.
FLIPR-based calcium mobilization assay in HEK293 cells was used to measure PAR4 antagonism, agonism, and selectivity against PAR1. The activity of the PAR4 antagonists of the present invention were tested in PAR4 expressing cells by monitoring H-Ala-Phe(4-F)-Pro-Gly-Trp-Leu-Val-Lys-Asn-Gy-NH2-induced intracellular calcium mobilization. Counter screens for agonist activity and PAR1 antagonist activity were also performed. Briefly, PAR1/PAR4-expressing HEK293 cells were grown in DMEM (Life Technology, Grand Island, NY) containing 10% heat-inactivated FBS, 1% Penicillin-Streptomycin, 10 μg/mL blasticidin, and 100 μg/mL Zeocin at 37° C. with 5% CO2. Cells were plated overnight prior to the experiment in a black 384-well Purecoat Amine clear bottom plate (Becton Dickinson Biosciences, San Jose, CA) at 10,000 cells/well in 30 μL growth medium and incubated in a humidified chamber at 37° C. with 5% CO2 overnight. Prior to compound addition, the cell medium was replaced with 40 μL of 1× calcium and magnesium-containing Hank's Balanced Saline Solution (HBSS) (with 20 mM HEPES) and 1:1000 diluted fluorescent calcium indicator (Codex Biosolutions, Gaithersburg, MD). After a 30 minute incubation period at 37° C. and a further 30 minute incubation and equilibration period at room temperature, 20 μL test compound (diluted in 1×HBSS buffer) was added at various concentrations at 0.17% dimethyl sulfoxide (DMSO) final concentration. Changes in fluorescence intensity were measured using a Functional Drug Screening System (FDSS, Hamamatsu, Japan) to determine agonist activities. The cells were then incubated for 30 minutes at room temperature followed by addition of 20 μL of agonist peptide for antagonist activity measurement. […] Compound potency was derived from 11-point concentration-response curves.

| Structure (SMILES) | IC50 [nM] |
| --- | --- |
| COc1cnc2c(-c3nc4cc(F)c5c(c4s3)C[C@H](COC(=O)Nc3cncc(F)c3)O5)cc(C)cc2n1 [Example 161, (R)-(5-fluoro-2-(2-methoxy-7-methylquinoxalin-5-yl)-7,8-dihydrobenzofuro[5,4-d]thiazo 1-7-yl)methyl (5-fluoropyridin-3-yl)carbamate] | 1.1 |
| COC(=O)NC[C@H]1Oc2c(F)cc3nc(-c4cc(C)cc5nc(OC)cnc45)sc3c2[C@@H]1C [Example 255, Methyl (((7S,8S)-5-fluoro-2-(2-methoxy-7-methylquinoxalin-5-yl)-8-methyl-7,8-dihydrobenzofuro[5,4-d]thiazol-7-yl)methyl)carbamate] | 1.4 |
| COc1cnc2c(-c3nc4cc(F)c5c(c4s3)C[C@@H](CNC(=O)Oc3ccc(Cl)cc3)O5)cc(C)cc2n1 [Example 214, (S)-4-chlorophenyl ((5-fluoro-2-(2-methoxy-7-methylquinoxalin-5-yl)-7,8-dihydrobenzofuro[5,4-d]thiazol-7-yl)methyl)carbamate] | 26 |
| COc1cnc2c(-c3nc4c(C)cc5c(c4s3)OCC(COC(=O)Nc3ccc4ocnc4c3)O5)cc(C)cc2n1 (stereo not shown) [Example 82, (2-(2-methoxy-7-methylquinoxalin-5-yl)-4-methyl-7,8-dihydro-[1,4]dioxino[2′,3′:3,4]benzo[1,2-d]thiazol-7-yl)methyl benzo[d]oxazol-5-ylcarbamate] | 55 |
| COc1cnc2c(-c3nc4cc(F)c5c(c4s3)C[C@H](COC(=O)Nc3cnc(OCCO)nc3)O5)cc(C)cc2n1 [Example 173, (R)-(5-fluoro-2-(2-methoxy-7-methylquinoxalin-5-yl)-7,8-dihydrobenzofuro[5,4-d]thiazo 1-7-yl)methyl (2-(2-hydroxyethoxy)pyrimidin-5-yl)carbamate] | 1.3 |
| COc1cc(NC(=O)OC[C@H]2COc3c(cc(C)c4nc(-c5cc(C)cc6nc(OC)cnc56)sc34)O2)ccn1 [Example 45, (R)-(2-(2-methoxy-7-methylquinoxalin-5-yl)-4-methyl-7,8-dihydro-[1,4]dioxino[2′,3′:3,4]benzo[1,2-d]thiazol-7-yl)methyl (2-methoxypyridin-4-yl)carbamate] | 1.1 |
| COc1cnc2c(-c3nc4cc(F)c5c(c4s3)C[C@@H](CNC(=O)OC(C)(C)C)O5)cc(C)cc2n1 [Example 202, (S)-tert-butyl ((5-fluoro-2-(2-methoxy-7-methylquinoxalin-5-yl)-7,8-dihydrobenzofuro[5,4-d]thiazol-7-yl)methyl)carbamate] | 6.5 |
| COc1cnc2c(-c3nc4c(C(O)C5(C(F)(F)F)CC5)cc5c(c4s3)OCCO5)cc(C)cc2n1 (stereo not shown) [Example 279, (2-(2-methoxy-7-methylquinoxalin-5-yl)-7,8-dihydro-[1,4]dioxino[2′,3′:3,4]benzo[1,2-d]thiazol-4-yl)(1-(trifluoromethyl)cyclopropyl)methanol] | 9.1 |
| COc1cnc2c(-c3nc4cc(F)c5c(c4s3)C[C@H](COC(=O)Nc3cnc(C)nc3)O5)cc(C)cc2c1 [Example 269, (R)-(5-fluoro-2-(3-methoxy-6-methylquinolin-8-yl)-7,8-dihydrobenzofuro[5,4-d]thiazol-7-yl)methyl (2-methylpyrimidin-5-yl)carbamate] | 2.7 |
| Cc1ncc(NC(=O)OC[C@H]2COc3c(ccc4nc(-c5cc(Cl)cc6cc(OC(F)F)cnc56)sc34)O2)cn1 [Example 272, (R)-(2-(6-chloro-3-(difluoromethoxy)quinolin-8-yl)-7,8-dihydro-[1,4]dioxino[2′,3′:3,4]benzo[1,2-d]thiazol-7-yl)methyl (2-methylpyrimidin-5-yl)carbamate] | 3.3 |
| COc1cnc2c(-c3nc4cc(F)c5c(c4s3)C[C@H](COC(=O)Nc3cc(F)cc(C#N)c3)O5)cc(C)cc2n1 [Example 179, (R)-(5-fluoro-2-(2-methoxy-7-methylquinoxalin-5-yl)-7,8-dihydrobenzofuro[5,4-d]thiazo 1-7-yl)methyl (3-cyano-5-fluorophenyl)carbamate] | 2.4 |
| COc1ccc(OC(=O)NC[C@@H]2Cc3c(c(F)cc4nc(-c5cc(C)cc6nc(OC)cnc56)sc34)O2)cc1 [Example 216, (S)-4-methoxyphenyl ((5-fluoro-2-(2-methoxy-7-methylquinoxalin-5-yl)-7,8-dihydrobenzofuro[5,4-d]thiazol-7-yl)methyl)carbamate] | 2.1 |
| COc1cnc2c(-c3nc4c(Cl)cc5c(c4s3)OC[C@H](COC(=O)Nc3cnc(F)c(C)c3)O5)cc(C)cc2n1 [Example 64, (R)-(4-chloro-2-(2-methoxy-7-methylquinoxalin-5-yl)-7,8-dihydro-[1,4]dioxino [2′,3′:3,4]benzo[1,2-d]thiazol-7-yl)methyl (6-fluoro-5-methylpyridin-3-yl)carbamate] | 2.5 |
| COc1cnc2c(-c3nc4cc(F)c5c(c4s3)C[C@H](COC(=O)Nc3cncc(C#N)c3)O5)cc(C)cc2n1 [Example 154, (R)-(5-fluoro-2-(2-methoxy-7-methylquinoxalin-5-yl)-7,8-dihydrobenzofuro[5,4-d]thiazol-7-yl)methyl (5-cyanopyridin-3-yl)carbamate] | 6.3 |
| COCc1cnc2c(-c3nc4cc5c(cc4s3)OCO5)cc(C)cc2n1 [Example 143, 6-(2-(methoxymethyl)-7-methylquinoxalin-5-yl)-[1,3]dioxolo[4′,5′:4,5]benzo[1,2-d]thiazole] | 5.5 |
| COc1cnc2c(-c3nc4cc(F)c5c(c4s3)C[C@@H](CNC(=O)OCC(C)C)O5)cc(C)cc2n1 [Example 246, (S)-isobutyl ((5-fluoro-2-(2-methoxy-7-methylquinoxalin-5-yl)-7,8-dihydrobenzofuro[5,4-d]thiazol-7-yl)methyl)carbamate] | 5 |
| COc1cnc2c(-c3nc4c(C)cc5c(c4s3)OC[C@H](COC(=O)Nc3cccc(C#N)c3)O5)cc(C)cc2n1 [Example 46, (R)-(2-(2-methoxy-7-methylquinoxalin-5-yl)-4-methyl-7,8-dihydro-[1,4]dioxino[2′,3′:3,4]benzo[1,2-d]thiazol-7-yl)methyl (3-cyanophenyl)carbamate] | 1 |
| C=Cc1cc(-c2nc3c(C)cc4c(c3s2)OCC(COC(=O)Nc2cccnc2)O4)c2ncc(OC)nc2c1 (stereo not shown) [Example 89, (2-(2-methoxy-7-vinylquinoxalin-5-yl)-4-methyl-7,8-dihydro-[1,4]dioxino[2′,3′:3,4]benzo [1,2-d]thiazol-7-yl)methyl pyridin-3-ylcarbamate] | 20 |
| COc1cnc2c(-c3nc4ccc5c(c4s3)OC[C@H](COC(=O)Nc3cnc(C)nc3)O5)cc(C(F)F)cc2c1 [Example 275, (R)-(2-(6-(difluoromethyl)-3-methoxyquinolin-8-yl)-7,8-dihydro-[1,4]dioxino [2′,3′:3,4]benzo[1,2-d]thiazol-7-yl)methyl (2-methylpyrimidin-5-yl)carbamate] | 12 |
| COc1cnc2c(-c3nc4cc(F)c5c(c4s3)CC(C)(C)O5)cc(C)cc2n1 [Example 200, 5-fluoro-2-(2-methoxy-7-methylquinoxalin-5-yl)-7,7-dimethyl-7,8-dihydrobenzofuro[5,4-d]thiazole] | 7.9 |
| COc1ccc(NC(=O)OCC2Cc3c(cc(Cl)c4nc(-c5cc(C)cc6nc(OC)cnc56)sc34)O2)cn1 (stereo not shown) [Example 17, (4-chloro-2-(2-methoxy-7-methylquinoxalin-5-yl)-7,8-dihydrobenzofuro[5,4-d]thiazol-7-yl)methyl (6-methoxypyridin-3-yl)carbamate] | 3.1 |
| COc1cnc2c(-c3nc4c(C)cc5c(c4s3)OCC(COC(=O)Nc3ccc(Cl)nc3)O5)cc(C)cc2n1 (stereo not shown) [Example 115, (2-(2-methoxy-7-methylquinoxalin-5-yl)-4-methyl-7,8-dihydro-[1,4]dioxino[2′,3′:3,4]benzo [1,2-d]thiazol-7-yl)methyl (6-chloropyridin-3-yl)carbamate] | 1.4 |
